Experimental data from EP1957493B1, “8-AZABICYCLO[3.2.1]OCTANE DERIVATIVES USEFUL AS MONOAMINE REUPTAKE INHIBITORS” (N.V. Organon, priority 2005, dated 2007).
Like-named read-outs stand apart in the source and are kept apart here.

Experiments:
Type in all cases: cell-based
[1] = target: T1, human dopamine transporter (hDAT) (Homo sapiens, UniProt Q01959); experiment: Assay of monoamine uptake: inhibition of dopamine uptake
T1 construct: expressed in transfected cells
Method: (§1) The in vitro test for the inhibition of dopamine and serotonin uptake was performed in Chinese Hamster Ovary cells expressing the human dopamine transporter (hDAT) or the human serotonin transporter (hSERT). The in vitro test for the inhibition of noradrenaline uptake was performed in Madin Darby Canine Kidney Cells (MDCK) expressing the human noradrenaline transporter (hNET).
(§2) Briefly, cell lines stably overexpressing the appropriate human transporter were propagated and plated according to standard cell culture techniques. Following plating, cells were left to adhere for either one or two days. A 6-point serial dilution (normally 1 E-5M to 1E-10M) of test and reference compounds was prepared, added to the washed cells and incubated for 5 minutes at ambient temperature for dopamine or serotonin transporter overexpressing and 37°C for noradrenaline overexpressing cells. Next, a final concentration of 20 nM of appropriate neurotransmitter (mixture of [^3H]-neurotransmitter and non-labelled neurtoransmitter) was added and the cells were incubated for three or five minutes at ambient temperature for dopamine or serotonin transporter overexpressing cells or ten minutes at 37°C for noradrenaline overexpressing cells. Following termination of the assay, Microscint-20 was added directly to the cells and the amount of radioactivity taken up by the cells was estimated by scintillation counting.
(§3) pEC50 values indicating inhibition of monoamine uptake were calculated using standard curve fitting techniques.

[2] = target: T2, human noradrenaline transporter (hNET) (Homo sapiens, UniProt P23975); experiment: Assay of monoamine uptake: inhibition of noradrenaline uptake
T2 construct: expressed in transfected cells
T2 sequence (P23975 whole entry): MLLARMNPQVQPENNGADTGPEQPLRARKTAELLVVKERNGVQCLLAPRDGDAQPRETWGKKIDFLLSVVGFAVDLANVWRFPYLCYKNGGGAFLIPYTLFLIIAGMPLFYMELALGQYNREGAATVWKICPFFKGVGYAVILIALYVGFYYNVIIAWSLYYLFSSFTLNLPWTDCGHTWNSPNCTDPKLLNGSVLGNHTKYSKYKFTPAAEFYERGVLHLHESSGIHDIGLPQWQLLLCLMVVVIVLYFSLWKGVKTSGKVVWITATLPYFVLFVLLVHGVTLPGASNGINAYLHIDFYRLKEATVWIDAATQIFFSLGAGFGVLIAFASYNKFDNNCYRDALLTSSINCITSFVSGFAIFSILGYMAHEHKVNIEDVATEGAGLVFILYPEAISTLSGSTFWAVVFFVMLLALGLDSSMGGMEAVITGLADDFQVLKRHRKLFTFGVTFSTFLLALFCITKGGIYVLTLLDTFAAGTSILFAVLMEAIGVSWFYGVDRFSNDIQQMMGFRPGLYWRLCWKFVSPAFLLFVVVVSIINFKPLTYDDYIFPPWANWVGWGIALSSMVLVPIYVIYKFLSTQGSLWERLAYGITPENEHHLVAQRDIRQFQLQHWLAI
Method: as §1, §2, §3

[3] = target: T3, human serotonin transporter (hSERT) (Homo sapiens, UniProt P31645); experiment: Assay of monoamine uptake: inhibition of serotonin uptake
T3 construct: expressed in transfected cells
T3 sequence (P31645 whole entry): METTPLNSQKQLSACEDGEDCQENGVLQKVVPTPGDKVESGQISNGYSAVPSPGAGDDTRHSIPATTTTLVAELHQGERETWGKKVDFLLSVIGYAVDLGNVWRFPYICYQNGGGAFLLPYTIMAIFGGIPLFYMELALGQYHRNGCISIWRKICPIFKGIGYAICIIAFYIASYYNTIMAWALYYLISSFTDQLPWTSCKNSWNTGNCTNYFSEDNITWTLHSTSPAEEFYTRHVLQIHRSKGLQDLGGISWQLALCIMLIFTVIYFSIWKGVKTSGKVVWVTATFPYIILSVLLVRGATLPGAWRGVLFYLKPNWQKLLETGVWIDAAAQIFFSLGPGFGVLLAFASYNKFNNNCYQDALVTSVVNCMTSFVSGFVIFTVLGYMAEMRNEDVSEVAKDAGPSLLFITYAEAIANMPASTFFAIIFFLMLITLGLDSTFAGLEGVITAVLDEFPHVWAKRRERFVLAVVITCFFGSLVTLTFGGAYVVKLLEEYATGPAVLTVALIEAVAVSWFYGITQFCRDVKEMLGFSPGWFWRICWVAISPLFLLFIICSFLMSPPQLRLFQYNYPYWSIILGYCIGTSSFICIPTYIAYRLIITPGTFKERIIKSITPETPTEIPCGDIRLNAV
Method: as §1, §2, §3

[4] = inhibition of dopamine uptake, Chinese Hamster Ovary cells expressing hDAT, 20 nM neurotransmitter ([3H]-labelled and non-labelled), ambient temperature, read-out: hDAT
[5] = inhibition of noradrenaline uptake, Madin Darby Canine Kidney Cells (MDCK) expressing hNET, 20 nM neurotransmitter ([3H]-labelled and non-labelled), 37°C, read-out: hNET
[6] = inhibition of serotonin uptake, Chinese Hamster Ovary cells expressing hSERT, 20 nM neurotransmitter ([3H]-labelled and non-labelled), ambient temperature, read-out: hSERT

T1 sequence (Q01959 whole entry): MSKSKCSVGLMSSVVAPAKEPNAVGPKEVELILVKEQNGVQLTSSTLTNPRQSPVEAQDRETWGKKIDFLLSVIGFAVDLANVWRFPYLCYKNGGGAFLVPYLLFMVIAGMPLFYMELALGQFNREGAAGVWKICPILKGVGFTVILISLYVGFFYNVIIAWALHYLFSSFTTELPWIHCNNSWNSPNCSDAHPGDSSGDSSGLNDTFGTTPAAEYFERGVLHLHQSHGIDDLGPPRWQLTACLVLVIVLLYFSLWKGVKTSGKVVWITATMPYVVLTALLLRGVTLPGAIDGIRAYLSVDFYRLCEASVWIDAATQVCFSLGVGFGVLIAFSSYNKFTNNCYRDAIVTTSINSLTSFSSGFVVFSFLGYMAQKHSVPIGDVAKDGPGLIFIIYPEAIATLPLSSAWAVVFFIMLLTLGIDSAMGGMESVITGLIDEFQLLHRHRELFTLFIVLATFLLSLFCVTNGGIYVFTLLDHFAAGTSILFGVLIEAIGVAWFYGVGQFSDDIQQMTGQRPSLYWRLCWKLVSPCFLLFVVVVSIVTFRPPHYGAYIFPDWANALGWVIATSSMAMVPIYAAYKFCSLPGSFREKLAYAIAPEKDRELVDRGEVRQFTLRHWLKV

Compound	EC50 [1]	EC50 [2]	EC50 [3]	EC50 [1, 4]	EC50 [2, 5]	EC50 [3, 6]
c1ccc(Oc2cccc(OC3CC4CCC(C3)N4)c2)cc1 (stereo not drawn) [Example 111.5, 3-endo-(3-Phenoxyphenoxy)-8-azabicyclo[3.2.1]octane]	< 100 nM	100 to 1000 nM	> 1000 nM	–	–	–
N#Cc1ccc(-c2cc(C#N)cc(OC3CC4CCC(C3)N4)c2)nc1 (stereo not drawn) [Example IX.3, exo 6-(3-(8-Azabicyclo[3.2.1]oct-3-yloxy)-5-cyanophenyl)nicotinonitrile]	–	–	–	> 1000 nM	> 1000 nM	< 100 nM
FC(F)(F)c1ccccc1-c1cccc(OC2CC3CCC(C2)N3)c1 (stereo not drawn) [IV.8, 3-exo-(2'-Trifluoromethylbiphenyl-3-yloxy)-8-azabicyclo[3.2.1]octane]	–	–	–	> 1000 nM	< 100 nM	100 to 1000 nM
COc1cc(Oc2ccccc2)cc(OC2CC3CCC(C2)N3)c1F (stereo not drawn) [IV.9, 3-exo-(2-Fluoro-3-methoxy-5-phenoxyphenoxy)-8-azabicyclo[3.2.1]octane]	–	–	–	< 100 nM	< 100 nM	> 1000 nM
Clc1cc(Oc2ccccc2)cc(O[C@@H]2C[C@H]3CC[C@@H](C2)N3)c1 [IV.19, 3-exo-(3-Chloro-5-phenoxyphenoxy)-8-azabicyclo[3.2.1]octane]	–	–	–	< 100 nM	< 100 nM	> 1000 nM
FC(F)(F)c1ccc(OC2CC3CCC(C2)N3)cc1-c1ccccc1 (stereo not drawn) [VI.3, 3-exo-(6-Trifluoromethylbiphenyl-3-yloxy)-8-azabicyclo[3.2.1]octane]	–	–	–	> 1000 nM	> 1000 nM	100 to 1000 nM
N#Cc1ccc(-c2cc(C#N)cc(OC3CC4CCC(C3)N4)c2)cc1 (stereo not drawn) [VI.8, exo 5-(8-Azabicyclo[3.2.1]oct-3-yloxy)-biphenyl-3,4'-dicarbonitrile]	–	–	–	> 1000 nM	> 1000 nM	< 100 nM
